Experimental data published in patent publication US7166622B2, “Substituted phenylsulfonamide inhibitors of beta amyloid production” (Wyeth, priority 2002, dated 2007).
Where two headings read alike, the source gives them in different places.

Tests used:
CHO-K1 cells = assay: Toxicity in RRA (loss of luciferase signal); settings: toxicity = loss of signal (<0.75 fold increase)
Description: The beta amyloid inhibitory activity of the compounds of the present invention was determined using the Repressor Release Assay (RRA).
“Fold Increase” refers to the amount of luciferase activity (measured in relative light units) over diluent control. “SEM” refers to the standard error of the mean for fold increase.

beta amyloid production = assay: Repressor Release Assay (RRA); type: cell-based; settings: for fold induction at 10 µg/mL: Conc 10 μg/ml
Summary of the method: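 Read-out is luciferase luminescence (RLU) after 36-48 h duplicate compound exposure of transfected CHO-K1 cells. These cells carry transiently introduced APP-lacI and pRSVO-luc DNA. Diluent control was 25 mM Hepes/1% DMSO; toxicity recorded as binary score (1 non-toxic, 0 toxic).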

[1] = luciferase activity over diluent control, read-out: APPI Fold Increase
[2] = Conc 20 μg/ml, luciferase activity over diluent control, read-out: APPI Fold Increase
[3] = Conc 20 μg/ml, 1=non-toxic, 0=toxic
[4] = Conc 20 μg/ml, luciferase activity (RLU) over diluent control, read-out: APPI Fold Increase

Structure (SMILES)	(%)APPI Toxicity (CHO-K1 cells; Conc 10 μg/ml)	fold induction at 10 µg/mL (beta amyloid production; [1])	(%)APPI Toxicity (CHO-K1 cells; Conc 20 μg/ml)	fold induction at 20 µg/mL (beta amyloid production; [2])	further results
CC[C@H](C)[C@H](NS(=O)(=O)c1ccc(Br)cc1)C(O)C=C(C)C (stereo partly drawn) [Example 156, 4-bromo-N-{(1S)-2-hydroxy-4-methyl-1-[(1S)-1-methylpropyl]-3-pentenyl}benzenesulfonamide]	1 (1=non-toxic)	2.01			(%)APPI Toxicity (CHO-K1 cells; Conc 3 μg/ml): 1 (1=non-toxic); fold induction at 3 µg/mL (beta amyloid production; Conc 3 μg/ml, luciferase activity over diluent control, read-out: APPI Fold Increase): 1.52
CC(C)C[C@@H](CO)NS(=O)(=O)c1ccc(Cl)cc1 [Example 92, 4-chloro-N-[(1S)-1-(hydroxymethyl)-3-methylbutyl]benzenesulfonamide]			1 (1=non-toxic)	1.7	
CC[C@H](C)[C@@H](CO)NS(=O)(=O)c1ccc(Br)c(Br)c1 [Example 22, 3,4-dibromo-N-[(1S,2S)-1-(hydroxymethyl)-2-methylbutyl]benzenesulfonamide]			1 (1=non-toxic)	1.7	
CCCCCC[C@@H](CC)[C@@H](CO)NS(=O)(=O)c1ccc(Br)cc1 [Example 75, 4-bromo-N-[(1S,2R)-2-ethyl-1-(hydroxymethyl)octyl]benzenesulfonamide]					(%)APPI Toxicity (CHO-K1 cells; [3]): 1 (1=non-toxic); fold induction at 20 µg/mL (beta amyloid production; [4]): 4.8
CCCCCC[C@@H](C)[C@@H](CO)NS(=O)(=O)c1ccc(Br)cc1 [Example 72, 4-bromo-N-[(1S,2R)-1-(hydroxymethyl)-2-methyloctyl] benzenesulfonamide]					(%)APPI Toxicity (CHO-K1 cells; [3]): 1 (1=non-toxic); APPI Fold Increase (beta amyloid production; Conc 20 μg/ml, luciferase activity (RLU) over diluent control): 3.2; APPI % of Example #98 (beta amyloid production; Conc 20 μg/ml, relative to Example 98): 76.4%
CC[C@H](C)[C@H](NS(=O)(=O)c1cccc(Cl)c1)C(O)C1CCCC1 (stereo partly drawn) [Example 186, 3-chloro-N-{(1S,2S)-1-[cyclopentyl(hydroxy)methyl]-2-methylbutyl}benzenesulfonamide]	1 (1=non-toxic)	3.86			
CC[C@](C)(CO)NS(=O)(=O)c1ccc(Cl)cc1 [Example 97, 4-chloro-N-[(1R)-1-(hydroxymethyl)-1-methylpropyl]benzenesulfonamide]			1 (1=non-toxic)	1.5	
CC(C)C[C@@H](C(C)C)[C@@H](CO)NS(=O)(=O)c1ccc(Br)cc1 [Example 87, 4-bromo-N-[(1S,2S)-1-(hydroxymethyl)-2-isopropyl-4-methylpentyl]benzenesulfonamide]					(%)APPI Toxicity (CHO-K1 cells; [3]): 1 (1=non-toxic); fold induction at 20 µg/mL (beta amyloid production; [4]): 8.8
CC[C@H](C)[C@H](NS(=O)(=O)c1cccc(Cl)c1)C(O)(c1ccccc1)c1ccccc1 [Example 253, 3-chloro-N-{(1S,2S)-1-[hydroxy(diphenyl)methyl]-2-methylbutyl}benzenesulfonamide]	1 (1=non-toxic)	1.61			
O=S(=O)(N[C@H](CO)CC1CCCCC1)c1cccc(Cl)c1 [Example 106, 3-chloro-N-[(1S)-2-cyclohexyl-1-(hydroxymethyl)ethyl]benzenesulfonamide]			1 (1=non-toxic)	1.6	
O=S(=O)(NC1(CO)CCCC1)c1ccccc1F [Example 114, 2-fluoro-N-[1-(hydroxymethyl)cyclopentyl]benzenesulfonamide]			1 (1=non-toxic)	1.5	
C=C(C)C(O)[C@@H](NS(=O)(=O)c1ccc(F)cc1)[C@@H](C)CC (stereo partly drawn) [Example 138, 4-fluoro-N-{(1S)-2-hydroxy-3-methyl-1-[(1S)-1-methylpropyl]-3-butenyl}benzenesulfonamide]	1 (1=non-toxic)	1.57			
CCCCC(O)[C@@H](NS(=O)(=O)c1ccc(Br)cc1)[C@@H](C)CC (stereo partly drawn) [Example 148, 4-bromo-N-{(1S)-2-hydroxy-1-[(1S)-1-methylpropyl]hexyl}benzenesulfonamide]	1 (1=non-toxic)	1.88			
CCC(CC)[C@@H](CO)NS(=O)(=O)c1ccc(Cl)cc1 [Example 52, 4-chloro-N-[(1S)-2-ethyl-1-(hydroxymethyl)butyl]benzenesulfonamide]					(%)APPI Toxicity (CHO-K1 cells; [3]): 1 (1=non-toxic); fold induction at 20 µg/mL (beta amyloid production; [4]): 6.2
C=CCCC(O)(CCC=C)[C@@H](NS(=O)(=O)c1ccc(Cl)cc1)[C@@H](C)CC [Example 233, N-{(1S)-2-(3-butenyl)-2-hydroxy-1-[(1S)-1-methylpropyl]-5-hexenyl}-4-chlorobenzenesulfonamide]	1 (1=non-toxic)	6.67			
C/C=C(\C)C(O)[C@@H](NS(=O)(=O)c1ccc(Br)cc1)[C@@H](C)CC (stereo partly drawn) [Example 159, 4-bromo-N-{(1S,3E)-2-hydroxy-3-methyl-1-[(1S)-1-methylpropyl]-3-pentenyl}benzenesulfonamide]	1 (1=non-toxic)	2.11			
CC#CC(O)[C@@H](NS(=O)(=O)c1ccc(Cl)cc1)[C@@H](C)CC (stereo partly drawn) [Example 181, 4-chloro-N-{(1S)-2-hydroxy-1-[(1S)-1-methylpropyl]-3-pentynyl}benzenesulfonamide]	1 (1=non-toxic)	1.76			
CC[C@H](C)[C@@H](CO)NS(=O)(=O)c1cccc(Cl)c1 [Example 3, 3-chloro-N-[(1S,2S)-1-(hydroxymethyl)-2-methylbutyl]benzenesulfonamide]			1 (1=non-toxic)	3.6	
C[C@H](c1ccccc1)[C@@H](CO)NS(=O)(=O)c1ccc(Cl)cc1 [Example 51, 4-chloro-N-[(1S,2R)-1-(hydroxymethyl)-2-phenylpropyl]benzenesulfonamide]					(%)APPI Toxicity (CHO-K1 cells; [3]): 1 (1=non-toxic); fold induction at 20 µg/mL (beta amyloid production; [4]): 1.6
CC[C@H](C)[C@@H](CO)N(C)S(=O)(=O)c1ccc(Cl)cc1 [Example 90, 4-Chloro-N-methyl-N-[(1S,2S)-1-(hydroxymethyl)-2-methylbutyl]benzenesulfonamide]			1 (1=non-toxic)	1.6	
CC[C@H](C)[C@H](NS(=O)(=O)c1cccc(Cl)c1)C(O)C(C)C (stereo partly drawn) [Example 190, 3-chloro-N-{(1S)-2-hydroxy-3-methyl-1-[(1S)-1-methylpropyl]butyl}benzenesulfonamide]	1 (1=non-toxic)	1.76			
CCCCC(O)(CCCC)[C@@H](NS(=O)(=O)c1ccc(Cl)cc1)[C@@H](C)CC [Example 225, N-{(1S)-2-butyl-2-hydroxy-1-[(1S)-1-methylpropyl]hexyl}-4-chlorobenzenesulfonamide]	1 (1=non-toxic)	6.82			
CC[C@H](C)[C@H](NS(=O)(=O)c1ccc(F)cc1)C(O)c1ccc(SC)cc1 (stereo partly drawn) [Example 142, 4-fluoro-N-((1S,2 S)-1-{hydroxy[4-(methylsulfanyl)phenyl]methyl}-2-methylbutyl)benzenesulfonamide]	1 (1=non-toxic)	2.71			
